Reference: article PMC10958501, “4-Oxypiperidine Ethers as Multiple Targeting Ligands at Histamine H3 Receptors and Cholinesterases” (ACS Chemical Neuroscience, 2024)

Target: T1, hH3R (Homo sapiens, UniProt Q9Y5N1)
T1 construct: expressed in transfected cells; membrane fractions
Experiment: hH3R radioligand displacement assay in membrane fractions of HEK-293 cells
Format: binding
Settings: [3H]Nα-methylhistamine displacement, HEK-293 membranes; 95% CI in brackets
Method: The compounds were tested against H3R by an ex vivo assay using isolated guinea pig ileum electrically stimulated to contraction, according to Vollinga et al.[47] The pA2-values were calculated according to Arunlakshana and Schild.[59] The radioligand-displacement assay was performed in membrane fractions of HEK-293 cells stably expressing hH3R. Cell cultivation and membrane preparation were performed according to Kottke et al.[48] The Ki values were calculated from the IC50 values using the Cheng–Prusoff equation.[60] The statistical calculations were performed on −log(Ki). The mean values and 95% confidence intervals were transformed to nanomolar concentrations. The inhibitory activities toward AChE and BuChE of novel ADS compounds were assessed in a spectrophotometric Ellman’s assay using electric eel AChE (eeAChE) and equine BuChE (eqBuChE).[57] Intracellular cAMP accumulation was measured with a homogeneous TR-FRET immunoassay using the LANCE Ultra cAMP kit (PerkinElmer) and HEK293 cells stably expressing the human histamine H3 receptor.[61] A more detailed description of the biological methods is presented in the Supporting Information. […]
considered statistically significant. The pA2 values were compared with the affinity of thioperamide (Sigma-Aldrich, St. Louis, MO, USA).
3.2. hH 3R radioligand displacement binding assay.
The radioligand displacement binding assay was performed in membrane fractions of HEK-293 cells stably expressing hH3R. Cell cultivation and membrane preparation was performed according to Kottke et al 6. For the radioligand displacement assay, radioactively labeled […]
assay volume was set to 200 µL. The compounds were tested in several appropriate concentrations between 100 µM and 0.1 nM. Pipetting was partly done by Freedom Evo® (Tecan). Pitolisant was used to determine non-specific binding at a concentration of 10 µM.
The membrane fraction (20 µg/well), test compounds, and radiolabeled ligand were incubated for 90 minutes at 25 °C while shaking. The bound radioligand was separated from the free radioligand by filtration through GF/B filters pre-treated with 0.3 % (m/v) polyethyleneimine using a cell harvester. Radioactivity was determined by liquid scintillation counting using a MicroBeta® Trilux (Perkin Elmer). The data was obtained in duplicates in at least three independent experiments. Non-specific binding was subtracted from the raw data to calculate specific binding values. The evaluation was performed with GraphPad Prism 6.1 (San Diego, CA, USA) using non-linear regression (one-site competition with a logarithmic scale). The Ki values were calculated from the IC50 values using the Cheng-Prusoff equation 7. The statistical calculations were performed on –log(Ki). […]

T1 sequence (Q9Y5N1 whole entry): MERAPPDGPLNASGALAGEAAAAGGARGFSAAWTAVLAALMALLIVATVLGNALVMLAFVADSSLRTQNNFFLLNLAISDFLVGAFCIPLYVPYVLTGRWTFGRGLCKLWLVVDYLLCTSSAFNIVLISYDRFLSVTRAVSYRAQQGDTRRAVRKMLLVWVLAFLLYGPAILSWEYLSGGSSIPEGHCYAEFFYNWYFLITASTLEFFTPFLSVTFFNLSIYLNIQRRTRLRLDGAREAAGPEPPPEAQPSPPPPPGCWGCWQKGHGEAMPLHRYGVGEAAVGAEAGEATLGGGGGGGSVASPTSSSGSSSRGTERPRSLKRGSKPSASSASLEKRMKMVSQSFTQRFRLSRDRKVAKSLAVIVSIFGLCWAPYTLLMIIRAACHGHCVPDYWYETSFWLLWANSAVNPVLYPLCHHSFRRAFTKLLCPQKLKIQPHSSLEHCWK

Molecule `CCCN(C)Cc1ccc2cc(COC3CCN(Cc4ccccc4)CC3)ccc2c1` [ADS031, N-((6-(((1-Benzylpiperidin-4-yl)oxy)methyl)naphthalen-2-yl)methyl)-N-methylpropan-1-amine] has a Ki of 12.5 nM.
